Patent US20190307908A1, “NANOEMULSION AGENTS FOR ULTRASOUND DIAGNOSTIC AND THERAPY” (University of Washington, priority 2018, published 2019)

Tests used:
[1] = maximum PFC dissolved in ethanol; assay type: physicochemical; details: in ethanol (co-solvent)
Method: PFC ouzo droplets were synthesized by first dissolving a PFC into ethanol (co-solvent). A maximum of approximately 2.0% perfluorohexane (C6F14, TBoiling=56° C.), 2.3% perfluoropentane (C5F12, TBoiling=29° C.), 2.5% perfluorobutane (C4F10, TBoiling=2° C.), and 2.7% perfluoropropane ([…], TBoiling=−37° C.) by volume could be dissolved in ethanol. In the ethanol phase, a 20:1 mole ratio of dipalmitoylphosphatidylcholine (DPPC) and N-(Methylpolyoxyethylene oxycarbonyl)-1,2-distearoyl-sn-glycero-3-phosphoethanolamine sodium salt (DSPE-PEG 2K) lipids were also dissolved. The total lipid concentration was varied from 0.10 mg/ml to 1.82 mg/ml depending on the volume of perfluorocarbon that was used. […] However, lower concentration lipids solutions were not used to ensure ample lipids were in solution to stabilize the droplet interface. […] When an aqueous solution (solvent) prepared at a ratio of 7:2:1 water/propylene glycol/glycerol is added to the PFC/ethanol solution, the PFC oil phase quickly loses solubility resulting in the spontaneous nucleation of stable droplets (FIG. 2). Since PFCs are known to have very poor solubility in water, the greater the water content relative to ethanol, the lower the PFC solubility is in the final mixed solvent. The inclusion of glycerol and propylene glycol is optional for droplet nucleation. For example, PFC emulsions can also be generated in the absence of any stabilizer (FIGS. 8 and 9). However, glycerol and propylene glycol are commonly used along with lipid mixtures to improve microbubble stability. Here, glycerol and propylene glycol were also included in the ouzo droplet formulation to make the agent composition analogous to microbubbles and to increase stability.
The lipid-ethanol stock solution was then divided as needed. Using a stir plate, PFCs were then dissolved in the lipid-ethanol solution until it was fully saturated. For liquid PFCs (i.e. PFH and PFP), the PFC oil was incrementally added to the stirred ethanol solution until a small droplet of PFC formed in solution. The solution was then removed from the stir plate and allowed to rest at room temperature for approximately 20 minutes, enabling excess PFC to fall to the bottom of the container. For gaseous PFCs (i.e. PFB and OFP), PFC gas was bubbled into a sealed glass vial with the ethanol solution at a pressure of 1.5-2.0 PSI while on ice. It was bubbled through for a minimum of 2 minutes and purged 3 times to ensure the headspace was filled with gaseous PFC. Then, the PFC-lipid-ethanol solution was pipetted into a clean glass vial and diluted as needed using additional lipid-ethanol solution to achieve the desired PFC in ethanol saturation percentage. […]

rat spinal cord = test: ultrasound contrast imaging in a rat spinal cord model; assay type: in vivo, Sprague-Dawley rat; details: bolus via tail vein, 15 MHz linear array, harmonic imaging
Method: Ouzo-synthesized droplets were used as an ultrasound contrast agent in a rat spinal cord model (FIGS. 7A-7D). Surgical procedures were performed according to approved institutional animal care and use committee (IACUC) protocol following all appropriate guidelines from the university's Animal Welfare Assurance (A3464-01) as well as the NIH Office of Laboratory Animal Welfare (OLAW). A laminectomy was performed to remove the top surface of spine vertebrae, exposing the spinal cord. A bolus injection of perfluorobutane droplets ([…]) with a mean diameter of 182 nm was administered via tail vein and imaged using a 15 MHz linear array ultrasound transducer. […] Harmonic imaging was necessary to suppress intrinsic linear signals from this tissue model and to highlight the non-linear signals that are generated from bubble oscillations.
Surgical procedures were performed according to approved institutional animal care and use committee (IACUC) protocol following all appropriate guidelines from the university's Animal Welfare Assurance (A3464-01) as well as the NIH Office of Laboratory Animal Welfare (OLAW). A 0.2 ml bolus injection of perfluorobutane droplets diluted to approximately 10^6 droplet/ml was injected via tail vein in an anesthetized female Sprague-Dawley rat. An ultrasound imaging window was made by performing a laminectomy to expose the spinal cord between T6 and T10. […]

Row | maximum that could be dissolved in ethanol [1] | Compound | ultrasound contrast enhancement after injection (rat spinal cord)
1 | ~2.5 % by volume | FC(F)(F)C(F)(F)C(F)(F)C(F)(F)F [perfluorobutane] | 
2 | ~2.3 % by volume | FC(F)(F)C(F)(F)C(F)(F)C(F)(F)C(F)(F)F [perfluoropentane] | nearly zero contrast enhancement
3 | approximately 2.0 % by volume | FC(F)(F)C(F)(F)C(F)(F)C(F)(F)C(F)(F)C(F)(F)F [perfluorohexane] | nearly zero contrast enhancement
4 | ~2.7 % by volume | FC(F)(F)C(F)(F)C(F)(F)F [perfluoropropane] | 
